# Results from ChEMBL document CHEMBL3039007, “Structure-based identification of OATP1B1/3 inhibitors” (Mol Pharmacol, 2013).
# Residues, ends and D or L forms follow the SMILES beside them.
# How the values were obtained:
# [1] = biological target: T1, Solute carrier organic anion transporter family member 1B1 (Homo sapiens, UniProt Q9Y6L6); conditions: chinese hamster, cho, 10 µM
# T1 sequence (Q9Y6L6 whole entry): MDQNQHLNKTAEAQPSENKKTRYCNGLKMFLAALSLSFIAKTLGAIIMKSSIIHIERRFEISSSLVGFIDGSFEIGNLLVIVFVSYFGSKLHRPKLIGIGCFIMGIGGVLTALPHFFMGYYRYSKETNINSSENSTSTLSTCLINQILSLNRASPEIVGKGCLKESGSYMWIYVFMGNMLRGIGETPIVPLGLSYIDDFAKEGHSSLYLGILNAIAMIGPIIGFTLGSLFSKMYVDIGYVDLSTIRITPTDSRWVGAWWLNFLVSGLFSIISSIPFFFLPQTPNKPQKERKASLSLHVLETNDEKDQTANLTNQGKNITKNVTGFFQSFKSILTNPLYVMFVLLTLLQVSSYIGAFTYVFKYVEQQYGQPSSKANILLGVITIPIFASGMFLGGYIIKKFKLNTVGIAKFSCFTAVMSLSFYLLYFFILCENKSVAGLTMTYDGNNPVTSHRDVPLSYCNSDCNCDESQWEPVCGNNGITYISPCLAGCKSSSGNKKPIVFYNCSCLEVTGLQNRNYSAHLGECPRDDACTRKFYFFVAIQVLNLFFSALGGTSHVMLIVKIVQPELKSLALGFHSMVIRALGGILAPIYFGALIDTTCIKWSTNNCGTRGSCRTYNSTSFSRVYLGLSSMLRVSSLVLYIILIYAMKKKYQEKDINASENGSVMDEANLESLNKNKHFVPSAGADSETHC
# [2] = biological target: T2, Solute carrier organic anion transporter family member 1B3 (Homo sapiens, UniProt Q9NPD5); conditions: chinese hamster, cho, 10 µM
# T2 sequence (Q9NPD5 whole entry): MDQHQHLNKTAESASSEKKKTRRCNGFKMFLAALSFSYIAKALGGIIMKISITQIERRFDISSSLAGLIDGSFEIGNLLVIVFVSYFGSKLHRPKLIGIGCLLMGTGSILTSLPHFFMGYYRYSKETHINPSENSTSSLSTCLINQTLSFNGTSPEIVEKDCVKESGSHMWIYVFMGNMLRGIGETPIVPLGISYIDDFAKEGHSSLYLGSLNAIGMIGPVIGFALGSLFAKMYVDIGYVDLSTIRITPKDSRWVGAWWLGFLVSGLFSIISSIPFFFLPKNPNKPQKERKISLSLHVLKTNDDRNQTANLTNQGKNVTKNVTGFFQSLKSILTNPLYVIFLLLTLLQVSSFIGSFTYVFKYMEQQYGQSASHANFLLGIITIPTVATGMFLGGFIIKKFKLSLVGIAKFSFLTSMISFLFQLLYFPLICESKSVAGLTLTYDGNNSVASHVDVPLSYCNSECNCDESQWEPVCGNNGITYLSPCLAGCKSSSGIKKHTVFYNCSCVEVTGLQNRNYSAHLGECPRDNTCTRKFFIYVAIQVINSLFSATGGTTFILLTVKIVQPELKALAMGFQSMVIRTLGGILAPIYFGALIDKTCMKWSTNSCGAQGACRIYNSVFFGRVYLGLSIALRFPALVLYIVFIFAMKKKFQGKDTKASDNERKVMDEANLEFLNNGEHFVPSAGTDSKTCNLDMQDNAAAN
Structure (SMILES),residual activity [1],residual activity [2]
CC(C)(C)NC[C@H](O)c1ccc(O)c(CO)c1.Cl [LEVALBUTEROL HYDROCHLORIDE],95.04%,85.66%
Cl.c1ccc([C@H]2CN3CCSC3=N2)cc1 [LEVAMISOLE HYDROCHLORIDE],121.8%,102.9%
N[C@@H](Cc1ccc(O)c(O)c1)C(=O)O [LEVODOPA],86.05%,90.65%
C[C@H]1COc2c(N3CCN(C)CC3)c(F)cc3c(=O)c(C(=O)O)cn1c23.C[C@H]1COc2c(N3CCN(C)CC3)c(F)cc3c(=O)c(C(=O)O)cn1c23.O [LEVOFLOXACIN],117.4%,95.07%
CC(C)=CCC[C@](C)(O)[C@@H]1CC=C(C)CC1 [LEVOMENOL],83.39%,97.78%
C[C@H](N)[C@H](O)c1ccc(O)c(O)c1 [LEVONORDEFRIN],58.62%,80.26%
"CC(=O)/C(=C\c1ccccc1)CC(=O)O [LEVULINIC ACID,  3-BENZYLIDENYL-]",134.7%,110.1%
CCC/C=C1\OC(=O)C2=C1CCC=C2 [LIGUSTILIDE],117.7%,107.5%
CC1(C)O[C@H]2CC(=O)OC[C@]23[C@H]2CC[C@@]4(C)[C@H](c5ccoc5)OC(=O)[C@H]5O[C@]54[C@]2(C)C(=O)C[C@@H]13 [LIMONIN],102.2%,92.09%
C=C[C@](C)(O)CCC=C(C)C [LINALOOL (+)],102.5%,117.7%
CC(C)(C#N)O[C@@H]1O[C@H](CO)[C@@H](O)[C@H](O)[C@H]1O [LINAMARIN],131.3%,97.67%
CCC[C@@H]1C[C@@H](C(=O)N[C@@H]([C@H]2O[C@H](SC)[C@H](O)[C@@H](O)[C@H]2O)[C@@H](C)O)N(C)C1.Cl.O [LINCOMYCIN HYDROCHLORIDE],83.01%,97.7%
Cl[C@H]1[C@H](Cl)[C@@H](Cl)[C@@H](Cl)[C@H](Cl)[C@H]1Cl [LINDANE],79.82%,90.09%
"O=C(O)CCCCC1CCSS1 (stereo not drawn) [LIPOIC ACID, ALPHA]",129.1%,103.3%
COc1ccc(C2CC(=O)c3ccc(OC)cc3O2)cc1 (centres undefined) [LIQUIRITIGENIN DIMETHYL ETHER],104.2%,114.3%
C[C@H](CCC(=O)O)[C@H]1CC[C@H]2[C@@H]3CC[C@@H]4C[C@H](O)CC[C@]4(C)[C@H]3CC[C@]12C [LITHOCHOLIC ACID],6.612%,60.21%
CN1[C@@H](CC(=O)c2ccccc2)CCC[C@H]1C[C@H](O)c1ccccc1.Cl [LOBELINE HYDROCHLORIDE],125.6%,108.5%
C[C@@H]1[C@H]2[C@H](O[C@@H]3O[C@H](CO)[C@@H](O)[C@H](O)[C@H]3O)OC=C(C(=O)O)[C@H]2C[C@@H]1O [LOGANIC ACID],49.18%,99.49%
COC(=O)C1=CO[C@@H](O[C@@H]2O[C@H](CO)[C@@H](O)[C@H](O)[C@H]2O)[C@@H]2[C@@H](C)[C@@H](O)C[C@H]12 [LOGANIN],98.87%,87.42%
CC1(C)Oc2ccc3ccc(=O)oc3c2CC1O (centres undefined) [LOMATIN],92.91%,142.3%
COc1c2c(c(CC=C(C)C)c3oc(=O)c(-c4ccc(O)cc4)c(O)c13)OC(C)(C)C=C2 [LONCHOCARPIC ACID],26.49%,36.3%

Structure (SMILES),residual activity [1],residual activity [2]
O=C(O)c1nn(Cc2ccc(Cl)cc2Cl)c2ccccc12 [LONIDAMINE],129%,108%
CN(C)C(=O)C(CCN1CCC(O)(c2ccc(Cl)cc2)CC1)(c1ccccc1)c1ccccc1.Cl [LOPERAMIDE HYDROCHLORIDE],51.98%,94.1%
CCCCc1nc(Cl)c(CO)n1Cc1ccc(-c2ccccc2-c2nn[nH]n2)cc1 [LOSARTAN],23.21%,3.759%
CN1CCN(C2=Nc3ccccc3Oc3ccc(Cl)cc32)CC1.O=C(O)CCC(=O)O [LOXAPINE SUCCINATE],140.7%,117.8%
O=C(NC(=O)c1c(F)cccc1F)Nc1cc(Cl)c(OC(F)(F)C(F)C(F)(F)F)cc1Cl (centres undefined) [LUFENURON],102.8%,97.09%
Cl.O=C(O)CCC1NCC2CC1CN1CCCCC21 (centres undefined) [LUPANYL ACID HYDROCHLORIDE],104.4%,103.3%
OC[C@@H]1CCCN2CCCC[C@H]12 [LUPININE],114.4%,90.27%
O[C@H]1[C@H]2c3cc4c(cc3CN3CCC(=C[C@@H]1O)[C@H]23)OCO4 [LYCORINE],60.96%,97.14%
NCCCC[C@H](NC(=O)[C@H](Cc1ccc(O)cc1)NC(=O)[C@@H](N)CCCCN)C(=O)O [LYSYL-TYROSYL-LYSINE ACETATE] (H-Lys-Tyr-Lys-OH),85.47%,124.3%
NCCCC[C@H](N)C(=O)N[C@@H](Cc1ccccc1)C(=O)N[C@@H](Cc1ccc(O)cc1)C(=O)O [LYSYLPHENYLALANYLTYROSINE] (H-Lys-Phe-Tyr-OH),100.8%,112.2%
Oc1ccc2c(c1)OC[C@H]1c3cc4c(cc3O[C@@H]21)OCO4 [MAACKIAIN],108.2%,114.4%
Cl.NCc1ccc(S(N)(=O)=O)cc1 [MAFENIDE HYDROCHLORIDE],81.65%,85.4%
COc1cc2c(cc1O)[C@@H](Cc1ccc(O)cc1)[N+](C)(C)CC2.[I-] [MAGNOCURARINE IODIDE],91.83%,96.29%
Cc1occc(=O)c1O [MALTOL],79.28%,74.61%
"COC(=O)C(O)c1ccccc1 (centres undefined) [MANDELIC ACID, METHYL ESTER]",97.92%,76.32%
COc1c(O)cc2oc3cc(O)c(CC=C(C)C)c(O)c3c(=O)c2c1CC=C(C)C [MANGOSTIN],150.2%,110.4%
CC(=O)OC(C)(C)[C@@H]1Cc2cc3ccc(=O)oc3cc2O1 [MARMESIN ACETATE],70.52%,88.18%
CC(C)(O)[C@@H]1Cc2cc3ccc(=O)oc3cc2O1 [MARMESIN],89.64%,103.9%
COC(=O)Nc1nc2ccc(C(=O)c3ccccc3)cc2[nH]1 [MEBENDAZOLE],159.5%,99%
CCN(CCCCOC(=O)c1ccc(OC)c(OC)c1)C(C)Cc1ccc(OC)cc1.Cl (centres undefined) [MEBEVERINE HYDROCHLORIDE],89.99%,112%
CNC1(C)C2CCC(C2)C1(C)C.Cl (centres undefined) [MECAMYLAMINE HYDROCHLORIDE],93.56%,106.8%
